# Reference: patent US4464385A, “Treatment of diabetic complications with hydantoins” (Alcon Laboratories, Inc., priority 1982, dated 1984)
# Entries after “also recorded” stand apart in the source; their conditions may differ.
# Tested on: cataracts in rats
# Test: Prevention or retardation of cataracts in galactose-fed rats
# Assay type: in vivo, rat
# Details: for suppression of the formation of nuclear cataracts: 30 days; for % of Total Eyes, + (vacuole) / % of Total Eyes, - (Normal) / % of Total Eyes, N (nuclear cataract) / % of Total Eyes, S (snowflake) / Number of Eyes Observed, + (vacuole) / Number of Eyes Observed, - (Normal) / Number of Eyes Observed, N (nuclear cataract) / Number of Eyes Observed, S (snowflake) / Number of Eyes Observed, ±: 30% galactose diet, A,C,E 0.0025%, B,D 0.01%
# Procedure, shortened: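 Twelve rats per treatment, after two days on chow, were fed compound/diet mixtures ad libitum from Study Day 1 for thirty days; the 0.01% level was designed for 20 mg/kg/day. Cataracts were scored per eye using ophthalmoscope and/or penlight.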
substance,measurement,setting,value
"dl-spiro-(6-methylthio-chroman-4,4'-imidazolidine)-2',5'-dione",suppression of the formation of nuclear cataracts,0.0025% in diet,greater than 80%
same,"time of suppression, time to vacuole formation",0.01% in diet,13.5 days
same,"time to snowflake / retardation of cataract, versus Sarges 0.0025% d-6-fluoro",0.01% in diet,not significantly different from the Sarges 0.0025% d-6-fluoro control; also recorded: retard the progress of cataract formation slightly better than the Sarges control; also recorded: surpassed the positive control
same,"time to vacuole formation, versus Sarges 0.0025% d-6-fluoro",0.01% in diet,statistically lower (p<0.05) than the Sarges standard
same,suppression of the formation of nuclear cataracts,0.01% in diet,100%
same,"% of Total Eyes, + (vacuole)",Study Day 2,0%
same,"% of Total Eyes, - (Normal)",Study Day 2,100.0%
same,"% of Total Eyes, N (nuclear cataract)",Study Day 2,0%
same,"% of Total Eyes, S (snowflake)",Study Day 2,0%
same,"Number of Eyes Observed, + (vacuole)",Study Day 2,0 eyes
same,"Number of Eyes Observed, - (Normal)",Study Day 2,24 eyes
same,"Number of Eyes Observed, N (nuclear cataract)",Study Day 2,0 eyes
same,"Number of Eyes Observed, S (snowflake)",Study Day 2,0 eyes
same,"Number of Eyes Observed, ±",Study Day 2,0 eyes
same,"% of Total Eyes, + (vacuole)",Study Day 3,0%
same,"% of Total Eyes, - (Normal)",Study Day 3,100.0%
same,"% of Total Eyes, N (nuclear cataract)",Study Day 3,0%
same,"% of Total Eyes, S (snowflake)",Study Day 3,0%
same,"Number of Eyes Observed, + (vacuole)",Study Day 3,0 eyes
same,"Number of Eyes Observed, - (Normal)",Study Day 3,24 eyes
same,"Number of Eyes Observed, N (nuclear cataract)",Study Day 3,0 eyes
same,"Number of Eyes Observed, S (snowflake)",Study Day 3,0 eyes
same,"Number of Eyes Observed, ±",Study Day 3,0 eyes
same,"% of Total Eyes, + (vacuole)",Study Day 4,0%
same,"% of Total Eyes, - (Normal)",Study Day 4,16.7%
same,"% of Total Eyes, N (nuclear cataract)",Study Day 4,0%
same,"% of Total Eyes, S (snowflake)",Study Day 4,0%
same,"Number of Eyes Observed, + (vacuole)",Study Day 4,0 eyes
same,"Number of Eyes Observed, - (Normal)",Study Day 4,4 eyes
same,"Number of Eyes Observed, N (nuclear cataract)",Study Day 4,0 eyes
same,"Number of Eyes Observed, S (snowflake)",Study Day 4,0 eyes
same,"Number of Eyes Observed, ±",Study Day 4,20 eyes
same,"% of Total Eyes, + (vacuole)",Study Day 5,75.0%
same,"% of Total Eyes, - (Normal)",Study Day 5,0%
same,"% of Total Eyes, N (nuclear cataract)",Study Day 5,0%
same,"% of Total Eyes, S (snowflake)",Study Day 5,0%
same,"Number of Eyes Observed, + (vacuole)",Study Day 5,18 eyes
same,"Number of Eyes Observed, - (Normal)",Study Day 5,0 eyes
same,"Number of Eyes Observed, N (nuclear cataract)",Study Day 5,0 eyes
same,"Number of Eyes Observed, S (snowflake)",Study Day 5,0 eyes
same,"Number of Eyes Observed, ±",Study Day 5,6 eyes
same,"% of Total Eyes, + (vacuole)",Study Day 6,83.3%
same,"% of Total Eyes, - (Normal)",Study Day 6,0%
same,"% of Total Eyes, N (nuclear cataract)",Study Day 6,0%
same,"% of Total Eyes, S (snowflake)",Study Day 6,0%
same,"Number of Eyes Observed, + (vacuole)",Study Day 6,20 eyes
same,"Number of Eyes Observed, - (Normal)",Study Day 6,0 eyes
same,"Number of Eyes Observed, N (nuclear cataract)",Study Day 6,0 eyes
same,"Number of Eyes Observed, S (snowflake)",Study Day 6,0 eyes
same,"Number of Eyes Observed, ±",Study Day 6,4 eyes
same,"% of Total Eyes, + (vacuole)",Study Day 8,100.0%
same,"% of Total Eyes, - (Normal)",Study Day 8,0%
same,"% of Total Eyes, N (nuclear cataract)",Study Day 8,0%
same,"% of Total Eyes, S (snowflake)",Study Day 8,0%
same,"Number of Eyes Observed, + (vacuole)",Study Day 8,24 eyes
same,"Number of Eyes Observed, - (Normal)",Study Day 8,0 eyes
same,"Number of Eyes Observed, N (nuclear cataract)",Study Day 8,0 eyes
same,"Number of Eyes Observed, S (snowflake)",Study Day 8,0 eyes
same,"Number of Eyes Observed, ±",Study Day 8,0 eyes
same,"% of Total Eyes, + (vacuole)",Study Day 10,79.2%
same,"% of Total Eyes, - (Normal)",Study Day 10,0%
same,"% of Total Eyes, N (nuclear cataract)",Study Day 10,0%
same,"% of Total Eyes, S (snowflake)",Study Day 10,20.8%
same,"Number of Eyes Observed, + (vacuole)",Study Day 10,19 eyes
same,"Number of Eyes Observed, - (Normal)",Study Day 10,0 eyes
same,"Number of Eyes Observed, N (nuclear cataract)",Study Day 10,0 eyes
same,"Number of Eyes Observed, S (snowflake)",Study Day 10,5 eyes
same,"Number of Eyes Observed, ±",Study Day 10,0 eyes
same,"% of Total Eyes, + (vacuole)",Study Day 12,58.4%
same,"% of Total Eyes, - (Normal)",Study Day 12,0%
same,"% of Total Eyes, N (nuclear cataract)",Study Day 12,0%
same,"% of Total Eyes, S (snowflake)",Study Day 12,41.6%
same,"Number of Eyes Observed, + (vacuole)",Study Day 12,14 eyes
same,"Number of Eyes Observed, - (Normal)",Study Day 12,0 eyes
same,"Number of Eyes Observed, N (nuclear cataract)",Study Day 12,0 eyes
same,"Number of Eyes Observed, S (snowflake)",Study Day 12,10 eyes
same,"Number of Eyes Observed, ±",Study Day 12,0 eyes
same,"% of Total Eyes, + (vacuole)",Study Day 14,41.6%
same,"% of Total Eyes, - (Normal)",Study Day 14,0%
same,"% of Total Eyes, N (nuclear cataract)",Study Day 14,0%
